Assay results from US20220153783A1, “MITOCHONDRIA-TARGETING COMPOUND AND COMPOSITION COMPRISING SAME FOR TREATING OR PREVENTING AGING-RELATED DISEASES” (FUSION BIOTECHNOLOGY CO., LTD., priority 2019, published 2022).
SH = thiol (–SH) group at the N-terminus

What was measured:
[1] = Macromolecular formation of SP-101 by ROS (TEM/SEM); type: physicochemical; conditions: 1 mM and 10 mM in water, stirred 24 hours
Experimental: Specifically, 1 mM SP-101 and 10 mM SP-101 were each dissolved in water and stirred for 24 hours. A drop of an aqueous solution of SP-101 was placed on a formvar/carbon-coated copper grid and evaporated under atmospheric conditions. The sample was stained with a 2 wt % uranyl acetate solution, evaporated for 1 minute, and then the excess solution was removed therefrom by using a filter paper.

[2] = test system: senescent cells; test: Cytotoxicity of SP-101, MTT cell viability; type: cell-based; conditions: 5 μM to 30 μM SP-101, 24 hours
Experimental: (§1) Specifically, the cell viability of IMR90 and senescent cells against SP-101 was evaluated by identifying the reduction of 3-(4,5-dimethylthiazol-2-yl)-2,5-diphenyltetrazolium bromide (MTT) to insoluble formazan. Cells were seeded at a density of 5×10^3 cells per well in a 96-well plate and cultured overnight, followed by treatment with different concentrations of SP-101 in DMEM medium containing 10% FBS and cultured for 24 hours. Then, the cells were cultured with MTT, and then the crystallized formazan was quantified by measuring the absorbance thereof at 595 nm by using an ELISA plate reader. Results were expressed as percent viability=[(A550 (treated cells)−background value)/(A550 (untreated cells)−background value)]×100.

[3] = test system: senescent cells; test: SA-b-galactosidase staining of senescent cells; type: cell-based; conditions: 30 μM SP-101 versus untreated control, optical microscope
Experimental: Specifically, SA-b-galactosidase staining was used. Cells that were not treated with anything were used as a control, and those treated with 30 μM of SP-101 were used as an experimental group. SA-gal staining was performed using a kit (Biovision, K320-250) according to the manufacturer's instructions. Senescent cells were identified as blue-stained cells under an optical microscope.

[4] = test system: choroidal neovascularization; test: Laser-induced CNV model, fluorescein angiography; type: in vivo, mice; conditions: two weeks after laser, compared to Eylea control group
Source text: Specifically, the mice were anesthetized by intraperitoneal injection of ketamine hydrochloride and xylazine hydrochloride. By using a diode laser with a wavelength of 810 nm, eight photocoagulation spots, each having the size of 75 μm, the intensity of 250 mW, and the time of 50 ms, were made in concentric circles among the main retinal vessels around the optic nerve. The rupture of the Bruck's membrane was confirmed by identifying that cavitation bubbles had been formed in the choroid. Immediately after laser irradiation, the experimental groups treated with 10 μM, 50 μM, and 100 μM of SP-101, and phosphate buffered saline and Eylea, which were used as control groups, were injected into the vitreous cavity. Two weeks after laser irradiation, fluorescein angiography was performed thereon using a confocal scanning laser fundus camera. After fluorescein-dextran was rapidly injected intravenously, images thereof were taken at the beginning (2 min) and late (10 min).

[5] = Self-assembly of SH-KLAKLAKRGD (TEM, size); type: physicochemical; conditions: dissolved in water (1 mM and 10 mM), stirred 24 hours
Experimental: SH-KLAKLAKRGD (1 mM and 10 mM) was dissolved in water and stirred for 24 hours. A drop of SH-KLAKLAKRGD aqueous solution was placed on a formvar/carbon coated copper grid and allowed to evaporate at ambient conditions. The sample was stained with 2 wt % uranyl acetate solution and evaporated for 1 minute, and the excess solution was removed with filter paper. The specimen was observed using a JEM-1400 TEM operating at 120 kV.

[6] = test system: senescent cells; test: Cytotoxicity of SH-KLAKLAKRGD, MTT cell viability; type: cell-based; conditions: different concentrations, 24 hours
Experimental: as §1, with “SH-KLAKLAKRGD” for “SP-101”, “MTT” for “3-(4,5-dimethylthiazol-2-yl)-2,5-diphenyltetrazolium bromide (MTT)”

macromolecule formation by oxidation [1]	Substance	killing of senescent cells versus normal cells IMR90 [2]	reduction of senescent cells (blue-stained cells) [3]	volume of choroidal neovascularization ([4]; 10 μM SP-101 injected into the vitreous cavity)	volume of choroidal neovascularization ([4]; 100 μM SP-101 injected into the vitreous cavity)	size of the polymerized SH-KLAKLAKRGD [5] [nm]	macromolecule formation (TEM image) ([5]; TEM)	cell viability in senescent cells versus IMR90 normal cell [6]
oxidized to form a macromolecule	(3-((3-(3,5-dimercaptobenzamido)propyl)dimethylammonium)propyl)triphenylphosphonium [SP-101]	more senescent cells were killed than normal cells	senescent cells were reduced	decreased by about twice compared to the Eylea control group	decreased by about twice compared to the Eylea control group			
	SH-KLAKLAKRGD: mitochondria-targeting compound prepared by solid phase peptide synthesis; NH2-KLAKLAKRGD reacted with disulfide 4, structure in FIG. 10 ({SH}-KLAKLAKRGD-NH2; also: N-terminal thiol group from reaction with disulfide 4)					350±100	showed a macromolecule in which peptides were polymerized	cell viability in senescent cells was lower than that in IMR90
